The values below come from ChEMBL document CHEMBL1201862, “PubChem BioAssay data set” (2004).

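Dose response: 5 concentrations. Exposure: 48 h. Format: 96-well plates. Endpoint: linear interpolation; highest concentration if not reached. GI50 is the concentration that inhibits growth by half.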 Calls of active or inactive are those of the source. Cut-off read from the data, not from the text of the source: active = GI50 up to about 1.1 µM and inactive = higher.

Holding throughout (experiment): NCI tumour cell line growth inhibition, 48 h
For assay [1], the system named is UACC-257.
The subject of assay [2] is M14.
For assay [3], the system named is OVCAR-8.
Assay [4] relates to SR.
Assay [5] has as its system NCI-H460.
The test system of assay [6] is CCRF-CEM.
In assay [7] the test system is PC-3.
In assay [8] the test system is BT-549.
Assay [9] concerns SK-MEL-2.
Assay [10] has as its system SNB-19.
The subject of assay [11] is SNB-75.
For assay [12], the system named is NCI/ADR-RES.
Assay [13] relates to HL-60.
For assay [14], the system named is ACHN.
Assay [15] has as its system MDA-MB-231.
The test system of assay [16] is MOLT-4.
For assay [17], the system named is RXF 393.
In assay [18] the test system is MDA-MB-435.
The subject of assay [19] is A498.

Consider `CC(=O)O[C@H]1CC[C@H]2[C@@H]3CCc4cc(O)c(I)cc4[C@H]3CC[C@]12C`, for which the GI50 in [1] is 16.4 µM (inactive); in [2] it was 13.6 µM (inactive); in [3], 18.3 µM (inactive); in assay [4], 10.6 µM (inactive); in assay [5] it was 12.9 µM (inactive); in assay [6], > 10 µM (inactive). Further, the GI50 in [7] is 6.12 µM (inactive); in assay [8], 14.8 µM (inactive); in [9], 19 µM (inactive); in assay [10], 15.8 µM (inactive); in assay [11], 13.4 µM (inactive); in [12] it was 17.6 µM (inactive). Further, the GI50 in assay [13] was 5.21 µM (inactive); in assay [14], 14.9 µM (inactive); in assay [15] it was 3.64 µM (inactive); in [16] it was 4.73 µM (inactive).
Take `CC1(CCC(=O)OC2CCCCC2)OCCO1`: the GI50 in assay [1], in assay [2], in [3], in [4], in assay [5] and in assay [6] was > 100 µM (inactive) in each case. The GI50 in assay [17], in assay [18], in [19], in assay [7], in [9] and in assay [10] was > 100 µM (inactive) throughout. The GI50 in assay [11], in assay [12], in [13], in assay [14], in assay [15] and in assay [16] was > 100 µM (inactive) in each case.
Turning to `C[C@H](CO)C1=CC(C#C[Si](C)(C)C)N(C(=O)Oc2ccccc2)c2ccccc21` (some centres not stated), the GI50 in assay [1] is 13.6 µM (inactive); in assay [2] it was 7.69 µM (inactive); in assay [3], 17.7 µM (inactive); in assay [4], 3.4 µM (inactive); in [5], 9.25 µM (inactive); in [6], 10.9 µM (inactive). The GI50 in assay [17] is 10.2 µM (inactive); in assay [18], 2.26 µM (inactive); in assay [7] it was 10.2 µM (inactive); in [9], 13.4 µM (inactive); in assay [10], 15.8 µM (inactive); in assay [11], 6.5 µM (inactive). Further, the GI50 in [12] was 3.18 µM (inactive); in assay [13], 10.4 µM (inactive); in [14], 13.8 µM (inactive); in assay [15] it was 10.3 µM (inactive); in assay [16], 9.12 µM (inactive).
For `Nc1nc2c(ncn2CC2CCC(CO)C2)c(=O)[nH]1` (configuration not stated), the GI50 in assay [1], in assay [2], in assay [6], in assay [17], in assay [18] and in assay [19] was > 100 µM (inactive) in each case. Further, the GI50 in [7], in [9], in assay [10], in assay [11], in assay [12] and in assay [14] was > 100 µM (inactive) in each case. In addition, the GI50 in assay [15] is > 100 µM (inactive).
Regarding `S=C1SCN(Cc2ccco2)CN1c1ccc(Br)cc1`, the GI50 in assay [1] was 15.6 µM (inactive); in [2], 13.8 µM (inactive); in [3] it was 23.3 µM (inactive); in [4] it was 7.6 µM (inactive); in [5] it was 7.33 µM (inactive); in assay [6], 16.4 µM (inactive). For the same compound, the GI50 was 30.6 µM (inactive) in [17]; 14.6 µM (inactive) in [18]; 20 µM (inactive) in assay [19]; 16.7 µM (inactive) in [7]; 16.7 µM (inactive) in [8]; 13.6 µM (inactive) in assay [9]. Besides, the GI50 in assay [10] was 21.8 µM (inactive); in assay [11], 37.8 µM (inactive); in assay [12] it was 18.3 µM (inactive); in assay [13] it was 13.2 µM (inactive); in [14], 16 µM (inactive); in assay [16], 17.4 µM (inactive).
Turning to `Cc1nc2c(sc3nc4c(cc32)CCC4)c(=O)o1`, the GI50 was 89.1 µM (inactive) in assay [1]; 64.3 µM (inactive) in [2]; 36.1 µM (inactive) in assay [3]; 39.3 µM (inactive) in assay [4]; > 59.8 µM (inactive) in assay [5]; 40.8 µM (inactive) in assay [6]. The GI50 in assay [17] is > 100 µM (inactive); in assay [18] it was 36.6 µM (inactive); in assay [19] it was > 100 µM (inactive); in assay [7], > 100 µM (inactive); in assay [9], > 100 µM (inactive); in assay [10], > 53.2 µM (inactive). Besides, the GI50 was > 68.4 µM (inactive) in [11]; > 56.1 µM (inactive) in assay [12]; 49.9 µM (inactive) in assay [13]; > 66.7 µM (inactive) in assay [14]; > 92.5 µM (inactive) in assay [15]; 41.9 µM (inactive) in assay [16].
Turning to `CC(C)Oc1ccc(CNC2=NCCO2)c2ccccc12`, the GI50 in [1] was 5.25 µM (inactive); in assay [2], 11.4 µM (inactive); in assay [3], 15.2 µM (inactive); in [4], 7.85 µM (inactive); in assay [5], 12.4 µM (inactive); in [6], 13.3 µM (inactive). Also, the GI50 in assay [17] is 13.8 µM (inactive); in assay [18], 10.9 µM (inactive); in assay [19], 10.2 µM (inactive); in [10], 7.74 µM (inactive); in [11], 18.2 µM (inactive); in assay [12], 12.3 µM (inactive). Further, the GI50 was 8.63 µM (inactive) in [13], 14 µM (inactive) in assay [14], 14.5 µM (inactive) in [15] and 4.85 µM (inactive) in assay [16].
Consider `CC1=C(C)CC(C#N)(C#N)C(C#N)(C#N)C1`, for which the GI50 in assay [1] was > 10 µM (inactive); in [2] it was 2.86 µM (inactive); in assay [3] it was > 5.45 µM (inactive); in assay [4], 0.0802 µM (active); in assay [5], > 10 µM (inactive); in assay [6] it was 1.45 µM (inactive). The GI50 was > 4.39 µM (inactive) in assay [17]; > 10 µM (inactive) in [19]; > 6.35 µM (inactive) in assay [7]; > 10 µM (inactive) in [9]; > 10 µM (inactive) in assay [10]; > 10 µM (inactive) in assay [11]. Also, the GI50 in [12] was > 10 µM (inactive); in assay [13], 1.47 µM (inactive); in assay [14], > 8.79 µM (inactive); in [15], > 10 µM (inactive); in [16], 2.51 µM (inactive).
As for `COc1ccc(C(O)CC(O)(C(F)(F)F)C(F)(F)F)cc1` (configuration not stated), the GI50 in assay [1] is 19.1 µM (inactive); in [2] it was 32.8 µM (inactive); in assay [3], 23 µM (inactive); in assay [4], 22.9 µM (inactive); in assay [5], 27.4 µM (inactive); in assay [6] it was 20.8 µM (inactive). Besides, the GI50 in assay [17] is 20.1 µM (inactive); in [18] it was 31.9 µM (inactive); in assay [19], 21.9 µM (inactive); in [7], 11 µM (inactive); in assay [9], 17.6 µM (inactive); in assay [10], 24.9 µM (inactive). The GI50 in assay [11] was 1.7 µM (inactive); in [12] it was 19.4 µM (inactive); in [13] it was 18.7 µM (inactive); in assay [14], 29.6 µM (inactive); in [15], 20 µM (inactive); in assay [16] it was 23.9 µM (inactive).
As for `COC(=O)c1cc2c(cc1O)[C@@H](NC(C)=O)CCc1cc(OC)c(OC)c(OC)c1-2`, the GI50 is 0.0715 µM (active) in assay [1]; 0.0454 µM (active) in assay [2]; 0.0577 µM (active) in assay [3]; 0.055 µM (active) in assay [4]; 0.0528 µM (active) in assay [5]; 0.0492 µM (active) in assay [6]. The GI50 is 0.0262 µM (active) in assay [18]; 0.0568 µM (active) in [19]; 0.0509 µM (active) in [7]; 0.084 µM (active) in assay [9]; 0.101 µM (active) in assay [10]; 0.0299 µM (active) in assay [11]. For the same compound, the GI50 in assay [12] was 0.114 µM (active); in [14], 0.111 µM (active); in assay [15], 0.0923 µM (active); in [16] it was 0.0796 µM (active).
On to `Fc1ccc(F)c(/C=N/C23CC4CC(CC(C4)C2)C3)c1`, for which the GI50 was > 10 µM (inactive) in [1]; > 10 µM (inactive) in assay [2]; > 10 µM (inactive) in assay [3]; > 10 µM (inactive) in assay [4]; > 10 µM (inactive) in assay [5]; 5.13 µM (inactive) in assay [6]. Besides, the GI50 in [17], in assay [19], in [7], in assay [8], in assay [9] and in assay [10] was > 10 µM (inactive) each time. For the same compound, the GI50 in assay [11] was > 10 µM (inactive); in assay [12], > 10 µM (inactive); in [13] it was 2.62 µM (inactive); in assay [14], > 10 µM (inactive); in [16], > 10 µM (inactive).
In the case of `O=C(NCCCCNCCCNC(=O)OCc1ccccc1)OCc1ccccc1`, the GI50 in assay [1] was 19.2 µM (inactive); in [2], 18.3 µM (inactive); in [3], 26.8 µM (inactive); in [4] it was 23.9 µM (inactive); in assay [5], 23.6 µM (inactive); in [6], 31 µM (inactive). The GI50 in assay [17] was 16.5 µM (inactive); in [18] it was 33.4 µM (inactive); in [19], 17.4 µM (inactive); in assay [7], 27.2 µM (inactive); in assay [8] it was 55 µM (inactive); in assay [9] it was 21 µM (inactive). Also, the GI50 in assay [10] is 37.8 µM (inactive); in assay [11] it was 25.5 µM (inactive); in [12], 36.4 µM (inactive); in [13] it was 20.3 µM (inactive); in [14], 43.4 µM (inactive); in [16] it was 26.9 µM (inactive).
